Data published in PubChem BioAssay AID488890 (Southern Research Specialized Biocontainment Screening …, 2010).
pIC50: −log10 of the molar value. Inconclusive results are not listed. Activity calls are given as the source filed them. No rule for the calls is given here.

test system: Mycobacterium tuberculosis non-replicating, growth inhibition; assay: growth inhibition of non-replicating M. tuberculosis (AID 488890)

Compound | pIC50 | IC50
CCOc1ccc(/C=N/OCC(=O)Nc2ccc3c(c2)OCO3)cc1 | 5.29 | 
CN1CCN(c2ccc(NC(=O)c3ccc(-c4ccc(Br)cc4)o3)cc2)CC1 | 5.39 | 
O=C(c1ccccc1)C(CN1CCCC1)c1ccccc1 (stereo unspecified) | 5.26 | 
CN(C)CC/C=C1/c2ccc(F)cc2Sc2ccc(Cl)cc21 | 5.09 | 
O=C1NC2(CCC3(CC2)OCCO3)NN1c1ccc(Cl)cc1 | 6.08 | 
c1ccc(C[C@H]2CNCCN2CCCCC2CCCCC2)cc1 |  | 17.7 µM (inactive)
CC(C)c1ccc(N2C(=O)NC(=O)/C(=C/C=C/c3ccco3)C2=O)cc1 | 5.06 | 
CCOC(=O)C(C)Oc1ccc(OCc2ccccc2)cc1 (stereo unspecified) | 5.65 | 
Cc1[nH]n(-c2ccccc2)c(=O)c1C=Nc1cnc2ccccc2c1 | 5.21 | 
CCN(CC)CCNC(=O)c1[nH]c2ccc(OCc3ccccc3)cc2c1C |  | 29.6 µM (inactive)
CCC(=O)c1ccc(OCC(=O)OCC(=O)N2CCc3ccccc3C2)cc1 |  | 13 µM (inactive)
NC(=O)COC(=O)c1sc2ccccc2c1Cl | 5.08 | 
CC1=NN(C(=O)c2ccccc2F)C(O)(c2ccc(Cl)cc2)C1 (stereo unspecified) | 6.30 | 
Cc1c(Cl)cccc1-c1ccc(CNCc2ccccn2)o1 | 5.34 | 
COc1ccccc1OCCN1CSC(=S)N(C)C1 | 5.09 | 
CCCCC1CCC(C(=O)Nc2ccc(S(=O)(=O)Nc3nccs3)cc2)CC1 (stereo unspecified) | 5.11 | 
Cn1nnc(NC(=O)COc2ccc(C3CCCCC3)cc2)n1 | 5.77 | 
CCC(=O)Nc1nc2ccccc2n1Cc1ccc(Cl)cc1 | 6.08 | 
Cc1cccnc1NC(=O)COc1ccc2oc3c(c2c1)CCCC3 | 5.03 | 
CCOC(=O)c1ccc(NC(=O)CCSCCc2ccccn2)cc1 |  | 23.4 µM (inactive)
O=C(COC(=O)c1ccc(O)cc1O)c1ccc2c(c1)OCO2 |  | 25.9 µM (inactive)
CCOC(=O)c1sc(NC(=O)CCN2CC(C)OC(C)C2)c(C(=O)OCC)c1C (stereo unspecified) |  | 21.8 µM (inactive)
Cc1csc(=Nc2cccnc2)n1CC1CCCCC1 |  | 17.5 µM (inactive)
COc1cc(C=O)ccc1OCCOCCOc1ccc(Cl)cc1 |  | 27.8 µM (inactive)

Compound | pIC50 | IC50
O=C(CNc1cccc2ccccc12)N/N=C/c1ccc([N+](=O)[O-])o1 |  | 12.1 µM (inactive)
O=c1[nH]c(-c2ccccn2)nc2ccccc12 | 5.02 | 
Cc1cc(Cl)ccc1OCCCC(=O)NO |  | 14.6 µM (inactive)
Cc1ccc(NC(=O)c2ccc([N+](=O)[O-])o2)cc1S(=O)(=O)N1CCOCC1 |  | 13.9 µM (inactive)
COc1ccc(/C=C/c2nc3ccccc3c(=O)o2)cc1 | 5.56 | 
Cc1ccc(N=N/C(=C\O)C(=O)c2ccncc2)cc1 |  | 10.1 µM (inactive)
CC(C)(C)c1ccc(OCCC(=O)OCC(=O)NC2CCCCC2)cc1 | 5.03 | 
CC1CCCN(CCSc2ccc(Cl)cc2)C1 (stereo unspecified) | 5.29 | 
C[C@H](NC(=O)c1[nH]cnc1C(=O)Nc1ccccc1)C(=O)OC(C)(C)C |  | 18.9 µM (inactive)
COc1ccc2cc(C(=O)NCc3ccccc3)c(=O)oc2c1 |  | 39.3 µM (inactive)
Cc1ccc(-c2cc(C(F)F)nc(S(C)(=O)=O)n2)cc1 | 5.16 | 
CC(=O)N(Cc1ccc(F)cc1)C1=C(NCCc2ccccc2)C(=O)c2ccccc2C1=O | 5.36 | 
Cc1nc([N+](=O)[O-])c(Br)n1CC(=O)c1ccccc1 |  | 25.5 µM (inactive)
Clc1cccc(CNCCNCc2cccc(Cl)c2)c1 |  | 12.1 µM (inactive)
C/C(=N/NC(=O)c1cccc(C)c1)c1c(O)cc(C)oc1=O | 5.04 | 
CC1=NN(C(=O)c2ccc(Cn3nc(C)c(Br)c3C)cc2)C(O)(C(F)(F)F)C1 (stereo unspecified) | 6.24 | 
COc1ccc(NC(=O)c2nc3ccccc3s2)cc1 | 5.03 | 
O=C(Nc1c(F)cc(F)cc1Br)c1cc(-c2ccccc2)on1 | 5.20 | 
O=C(CN1CCCCC1)Nc1nnc(-c2ccc([N+](=O)[O-])cc2)s1 |  | 11.7 µM (inactive)
CC(C)=CC1C(C(=O)Nc2ccc(Br)cn2)C1(C)C (stereo unspecified) | 5.45 | 
C/C(=N\NC(=O)c1cc([N+](=O)[O-])cc([N+](=O)[O-])c1)c1ccco1 |  | 11.4 µM (inactive)
N=c1oc2ccc(Cl)cc2cc1C(=O)NC1CCCCCC1 |  | 11.6 µM (inactive)
O=C(Nc1ccccc1)c1cc2ccccc2o1 | 5.34 | 
O=C(O)CCCCCN1C(=O)CSC1=S |  | 19.9 µM (inactive)

Compound | pIC50 | IC50
Cc1ccc(/C=C2\SC(N3CCCC3)=NC2=O)cc1 | 5.21 | 
C=CCc1ccc2oc(C(=O)OCC)cc(=O)c2c1O | 5.90 | 
COc1cccc(NC(=O)c2ccc(Cn3cc([N+](=O)[O-])cn3)o2)c1 | 5.12 | 
CCC1CCCCN1S(=O)(=O)c1ccc(C(=O)Nc2nnc(-c3cccs3)o2)cc1 (stereo unspecified) |  | 11 µM (inactive)
O=C(Nc1ccccc1F)c1ccc(CSc2ccccc2)o1 | 5.36 | 
O=C(CCc1ccc(Oc2cc([N+](=O)[O-])cc([N+](=O)[O-])c2)cc1)N1CCCCC1 | 5.31 | 
CCCNC(=O)NC(=O)COc1ccc(-c2ccc(C#N)cc2)cc1 | 5.60 | 
Cc1cc(C)cc(OC(=O)CCN2C(=O)c3ccccc3C2=O)c1 |  | 19.4 µM (inactive)
CCCCn1c(O)c(/C=C2/C=CC=N2)c(=O)[nH]c1=O | 5.93 | 
O=C(CCS(=O)(=O)c1ccccc1)Nc1nc(-c2ccccn2)cs1 |  | 11.1 µM (inactive)
CCOC(=O)COc1c(-c2ccc(OC)cc2)oc2ccccc2c1=O | 5.35 | 
COc1cc(CNCCO)cc(Cl)c1OCc1ccc(Cl)cc1Cl | 5.18 | 
COc1ccc(OCC(=O)Nc2ccc(N3CCN(C(=O)c4ccco4)CC3)cc2)cc1 |  | 20.8 µM (inactive)
C/C(=N\NC(=O)c1ccc(CN2CCc3ccccc3C2)cc1)c1ccccc1O | 6.15 | 
O=C(CCS(=O)(=O)c1ccc(F)cc1)Nc1nc(-c2ccccn2)cs1 | 5.13 | 
O=C(Nc1cccc2ccccc12)c1ccc([N+](=O)[O-])o1 | 5.68 | 
CN(C)c1nc(-c2ccccn2)nnc1-c1ccccc1 | 5.01 | 
Nc1nc2ccccc2n1CCOc1ccccc1Cl | 5.12 | 
Cc1cc(C)n2[nH]c(=O)c(N=Nc3cccc(Cl)c3)c2n1 | 5.38 | 
O=C1c2cccc3c([N+](=O)[O-])ccc(c23)C(=O)N1c1ccccn1 | 5.31 | 
CC1CCN(CCOCCSc2ccc(Cl)cc2)CC1 |  | 19.7 µM (inactive)
Cc1ccc(OCCCCc2c(C)n[nH]c2C)cc1 | 5.10 | 
Cc1[nH][nH]c(=O)c1C(c1ccc(-c2ccc(F)cc2)o1)c1c(C)[nH][nH]c1=O | 5.07 | 
FC(F)(F)c1nc(SCc2ccc(Cl)cc2Cl)n[nH]1 | 5.33 | 

Compound | pIC50 | IC50
O=C(NC1CC2CCC1C2)C1COc2ccccc2O1 (stereo unspecified) | > 7.00 | 
S=C1SCN(Cc2cccnc2)CN1Cc1ccccc1 |  | 14.9 µM (inactive)
CCCc1ccc(OCc2ccc(C(=O)N/N=C/c3cccnc3)o2)cc1 | 5.07 | 
COC(=O)c1ccc(CO/N=C/c2ccc(OC)cc2)o1 | 5.16 | 
CC(C)(C)OC(=O)NNc1c2ccccc2nc2ccccc12 | 5.39 | 
CCCCN(C)C(=O)c1cc2cc3ccc(OC)cc3nc2s1 | 5.22 | 
O=C(CNC(=O)c1cccc(F)c1)N/N=C/c1ccc([N+](=O)[O-])s1 |  | 10.6 µM (inactive)
CCN(CC)CCSc1nnc2c3cc(C)ccc3n(Cc3ccccc3)c2n1 |  | 14.3 µM (inactive)
O=C1/C(=C/c2ccccn2)COc2ccccc21 |  | 15.8 µM (inactive)
N#Cc1ccsc1NC(=O)c1ccc(Cl)c([N+](=O)[O-])c1 | 5.36 | 
C/C(CC(=O)Nc1ccc(N(C)C)cc1)=N\NC(=O)c1ccncc1 | 6.52 | 
CC(C)C1O/C(=N/C(=O)Nc2ccc(Cl)c(Cl)c2)NC1=O (stereo unspecified) | 5.32 | 
CCOc1ccc(C(=O)N/N=C(/C)C2C(=O)c3ccccc3C2=O)cc1 | 6.33 | 
Cc1ccc(N=Nc2c(C)[nH]n(C(N)=S)c2=O)cc1C | 6.24 | 
CCc1cc2c(=O)n(C(C)C(=O)OC3CCCCC3)cnc2s1 (stereo unspecified) |  | 16.6 µM (inactive)
CCn1cc(C(=O)O)c(=O)c2cc(F)c(N3CCN(C(=S)NC(=O)c4ccccc4)CC3)cc21 |  | 16.8 µM (inactive)
N#CC(C#N)=c1ccc2c(c1)NC1(CCCCC1)N=2 | 5.24 | 
Nc1cccn2c(-c3ccc(Cl)cc3)cnc12 | 5.08 | 
O=C1Nc2cc(C(=O)NCCCN3CCOCC3)ccc2S/C1=C/c1cccc(Cl)c1 |  | 20.8 µM (inactive)
CC(/C=C/c1ccco1)=N/NC(=O)c1ccc(C)nc1 |  | 13.4 µM (inactive)
COc1ccc(NC(=O)C2COc3ccccc3O2)cc1 (stereo unspecified) | 5.35 | 
COc1cc(OC)cc(C(=O)Oc2c(CN3CCOCC3)cc(Cl)c3cccnc23)c1 | 5.10 | 
O=C1c2cc([N+](=O)[O-])cc3cc([N+](=O)[O-])cc(c23)C(=O)N1c1ccccn1 | 5.46 | 
CO/N=C/CC(=O)c1ccc(OC)cc1 |  | 30.5 µM (inactive)

Compound | pIC50 | IC50
COc1cccc2sc(Nc3nnc(-c4ccc(F)cc4)o3)nc12 | 5.57 | 
Cc1ccc(C(=O)CCNc2ccc(Br)cc2)o1 | 5.74 | 
O=C(Nc1nnc(-c2ccc(Br)cc2)o1)c1ccco1 |  | 11.4 µM (inactive)
CCOc1ccc(OCCSc2ccc(S(=O)(=O)N3CCN(C)CC3)cn2)cc1 |  | 15.5 µM (inactive)
Cc1nnc(C)n1/N=C/c1cc(Br)cc(Br)c1O |  | 11.3 µM (inactive)
CC(C)CCNCC(O)CON=C1c2ccccc2-c2ccccc21 (stereo unspecified) | 5.03 | 
Nc1c(C(=O)NC2CCCCC2)nsc1C(=O)OCC(=O)NC1CCCCC1 | 5.49 | 
O=C(N/N=C/c1ccc[nH]1)c1ccncc1 | 5.65 | 
O=C(Nc1nnc(C2=COCCO2)o1)c1ccc(F)cc1 |  | 15.9 µM (inactive)
Cc1ccc(/C=N/NC(=O)c2ccncc2)s1 | 5.84 | 
Cc1ccc(-n2cc(CNCCn3nc(C)cc3C)c(-c3ccc(F)cc3)n2)cc1 | 5.22 | 
CC(C)OC(=O)COc1ccc(-c2ccccc2)cc1 | 5.49 | 
Cc1ccc(C(=O)CCC2CCCC2=O)cc1 (stereo unspecified) |  | 14.4 µM (inactive)
O=C(c1ccc([N+](=O)[O-])o1)N1CCc2ccccc2C1 | 5.29 | 
Clc1ccc(N=c2ssnc2Cl)nc1 | 5.46 | 
O=C(Nc1nc2ccccc2[nH]1)c1ccc(F)cc1 |  | 13 µM (inactive)
COC(=O)COc1ccc2cc(-c3ccc(OC)cc3)c(=O)oc2c1 | 5.85 | 
O=C(O)c1[nH]c(=O)[nH]c(=O)c1F | 5.24 | 
O=C(c1cc2ccccc2o1)N1CCN(Cc2ccccc2)CC1 | 5.12 | 
N#CC(C(=O)NCc1ccco1)c1nc2ccccc2nc1N1CCOCC1 (stereo unspecified) |  | 15.9 µM (inactive)
